# According to patent US20240024273A1, “TOPICAL ADMINISTRATION OF 2-(DIETHYLAMINO)ETHYL 2-(4-ISOBUTYLPHENYL)PROPRIONATE FOR TREATMENT OF DISEASES” (TECHFIELDS PHARMA CO., LTD., priority 2020, published 2024):
# “And” between values parts separate entries of the source, which are not always exact repeats. Equal values may be shown once.
# Experiments:
# [1] = system: Collagen II induced arthritis; experiment: Collagen II induced arthritis; type: in vivo, Lewis rats; settings: 10, 30 and 90 mg/kg daily, topical
# [2] = Acute maximum tolerated dose study, dermal; design: species or system Beagle dogs; settings: beagle, dog, in vivo, topical or ocular; dermal application
# [3] = Battery of nonclinical pharmacology and toxicology studies (overall); settings: in vivo
# From the text: A battery of pharmacology and toxicology studies including a GLP acute dermal maximum tolerated dose study in rats, a GLP acute dermal maximum tolerated dose study in Beagle dogs, a non-GLP 14-day repeated dermal dose toxicity study in rats, a non-GLP 14-day repeated dermal dose toxicity study in Beagle dogs, a 28-day GLP repeated dermal dose toxicity and toxicokinetics study in rats with 14-day recovery, a 28-day GLP repeated dermal dose toxicity and toxicokinetics study in Beagle dogs with 14-day recovery, a GLP bacterial reverse mutation assay (Ames), a GLP in vitro chromosome aberration assay in CHO-WBL Cells, a GLP in vivo bone marrow micronucleus assay in rats, a behavioral effects in rats using the functional observational battery, a rat respiratory safety pharmacology study, a cardiovascular telemetry study in the unrestrained conscious non-naïve dog, a skin irritation study in rabbits, a study on embryo-fetal development in rats, a 39-week GLP repeated dermal dose toxicity and toxicokinetics study in mini pigs with 4-week recovery, a 26-week GLP repeated dermal dose toxicity and toxicokinetics study in rats with 4-week recovery, a study on fertility and early embryonic development to implantation in rats, a study on embryo-fetal development in rabbits, and a sensitization test in guinea pigs were conducted.
# [4] = system: healthy male and female volunteers; experiment: Phase 1 clinical study: safety (adverse events, laboratory, vital signs, ECG); type: in vivo, human; settings: for Subjects with at least one TEAE: N = 8
# From the text: Safety assessments included monitoring of adverse events (AEs), vital signs (blood pressure, pulse rate, respiratory rate and oral temperature), clinical laboratory findings, resting 12-lead electrocardiogram (ECG) results, skin irritation assessments and physical examination findings.
# Safety endpoints consist of all AEs, clinical laboratory test results, ECG, physical examination and vital sign assessments and skin irritation assessments.
# Safety summaries are provided for all subjects in the safety population. Data from subjects in each cohort who received placebo treatment were pooled. AE data, clinical laboratory test results, ECG, skin irritation and vital signs data are presented descriptively using summary tables and listings. Change from baseline in vital signs, ECG and clinical laboratory results are presented descriptively using summary tables and listings. Physical examination findings are listed by subject.
# Samples for clinical laboratory safety tests (chemistry, hematology, urinalysis) were obtained at the screening visit, Day −1, Day 4, Day 13 and prior to discharge from the study on Day 17 or at early termination. Any clinical laboratory findings considered to be clinically significant were recorded as AEs.
# Systolic and diastolic blood pressure (mmHg) and pulse rate (beats per minute), respiratory rate (breaths per minute) and oral temperature (° C.) were measured after at least 5 minutes at rest in the seated position at the screening visit, at admission on Day −1, Day 5 and Day 13, and prior to and 1 hour following each dose administration.
# A physical examination was performed at the screening visit and on Day 13, or at early termination, and included assessment of the following body systems: general appearance, dermatological, head, eyes, ears, nose and throat, neck, lymph nodes, lungs, heart, abdomen, neurological and musculoskeletal.
# A resting 12-lead ECG was recorded after at least 5 minutes of rest at the screening visit and on Day 13, or at early termination. The ECG parameters recorded include ventricular rate (bpm), PR interval (msec), QRS duration (msec), QT interval (msec), and QTc interval (msec). QTc interval was calculated at the clinic using a formula internal to the ECG equipment (Mortara).
# [5] = system: Mild to Moderate Osteoarthritis of the Knee; experiment: Phase 2 study: physician's global assessment of disease status; type: in vivo, human
# From the text: 3.9.3. Exploratory Efficacy Endpoints: • 1. Subject's global assessment of disease status of the target knee at 2, 4, 8, and 12 weeks of treatment; • 2. Investigator's global assessment of disease status of the target knee at 2, 4, 8, and 12 weeks of treatment; • 3. Subject's global assessment of response to therapy of the target knee at 2, 4, 8, and 12 weeks of treatment; • 4. Investigator's global assessment of response to therapy of the target knee at 2, 4, 8, and 12 weeks of treatment; • 5. Change from Baseline over time in VAS pain scores for the target knee from Daily Diary data; • 6. Amount of rescue medication (acetaminophen) consumed per day for target knee pain.
# Data for the exploratory efficacy endpoints will be summarized using descriptive statistics.
# [6] = system: Subjects with Mild to Moderate Osteoarthritis of the Knee; experiment: Phase 2 study: safety; type: in vivo, human
# From the text: Safety assessments will be performed at each visit and will include assessment of AEs, vital signs (blood pressure, pulse rate, and oral temperature), clinical laboratories, physical examination, skin irritation, and electrocardiograms (ECGs) as indicated in the study flow chart, Table 14.
# Safety assessments will include AEs, vital signs (blood pressures, pulse rate, and oral temperature), clinical laboratories, physical examination, skin irritation, and ECGs at various time points during the study as indicated in the study flow chart.
# Adverse events of interest include: local skin reactions around the treated knee(s), upper stomach pain, GI bleeding, serious cardiovascular side effects (e.g., thrombotic events, myocardial infarction, or stroke), jaundice, elevated liver function tests, and nausea.
# Safety analyses will be conducted on the SAS. Safety parameters will be listed and summarized using standard descriptive statistics, as appropriate. No formal statistical analyses are planned.
# [7] = In vitro half-life with animal skin; type: in vitro ADME; settings: read-out: in vitro T1/2 (converted)
# [8] = pig, in vivo, topical or ocular, 9 mg/kg
# [9] = N = 8 each, dose by column: c1 17.5, c2 35, c3 70, c4 140, c5 280 mg topical, c6 70 mg spray
structure (smiles),measurement,setting,value
CCN(CC)CCOC(=O)C(C)c1ccc(CC(C)C)cc1 (stereo not shown) [2-(diethylamino)ethyl 2-(4-isobutylphenyl)propionate],onset of the disease,[1],postponed the onset of the disease.
same,MTD,[2],≥ 50 mg/kg
same,overall safety,[3],appeared to be safe and were generally well tolerated
same,Subjects with at least one TEAE,[4]; 17.5 mg topical,1 (12.5%) n (%) and 1 (12.5) n (%)
same,"Headache, subjects",[4]; 35 mg topical,2 (25.0%)
same,Subjects with at least one TEAE,[4]; 35 mg topical,3 (37.5%) n (%) and 3 (37.5) n (%)
same,Subjects with at least one TEAE,[4]; 70 mg spray,2 (25.0%) n (%) and 2 (25.0) n (%)
same,Subjects with at least one TEAE,[4]; 70 mg topical,1 (12.5%) n (%) and 1 (12.5) n (%)
same,"Headache, subjects",[4]; 140 mg topical,1 (12.5%)
same,Subjects with at least one TEAE,[4]; 140 mg topical,1 (12.5%) n (%) and 1 (12.5) n (%)
same,Subjects with at least one TEAE,[4]; 280 mg topical,1 (12.5%) n (%) and 1 (12.5) n (%)
same,safety and tolerability,"[4]; 17.5-280 mg topical and 70 mg spray, single and multiple doses",safe and well-tolerated
same,Subjects who discontinued due to an AE,[4]; [9],0
same,Subjects with SAEs,[4]; [9],0
same,TEAE: Dizziness,[4]; [9],0 n (%)
same,TEAE: Vomiting,[4]; [9],0 n (%)
same,intensity of AEs,[4]; all dose groups,mild or moderate in intensity
same,"aspartate aminotransferase (ast) increased, subjects",[4]; each of 70 mg topical and 70 mg spray,1 (12.5%)
same,"alanine aminotransferase (ALT) increased, subjects","[4]; each of 70 mg, 280 mg topical and 70 mg spray",1 (12.5%)
same,ECG parameters,"[4]; human, in vivo",no clinically significant ECG parameter values
same,deaths,"[4]; human, in vivo",No subjects died
same,laboratory findings vs dose,"[4]; human, in vivo",no apparent trends or dose relationship
same,vital signs,"[4]; human, in vivo",no clinically significant vital sign values
same,"Physician's Global Assessment of Disease Status: Improved (percentage of patients who improved by 2 grades or more from baseline, or from 1 to 0)",[5]; 8.75 mg/knee (BID),10.5%
same,"Physician's Global Assessment of Disease Status: Worsened (percentage of patients who worsened by 2 grades or more from baseline, or from 3 to 4)",[5]; 8.75 mg/knee (BID),1.8%
same,patients improved by 2 grades or more from baseline (physician's global assessment),[5]; 8.75 mg/knee (BID),10.5%
same,"Physician's Global Assessment of Disease Status: Improved (percentage of patients who improved by 2 grades or more from baseline, or from 1 to 0)",[5]; 17.5 mg/knee (BID),35.6%
same,"Physician's Global Assessment of Disease Status: Worsened (percentage of patients who worsened by 2 grades or more from baseline, or from 3 to 4)",[5]; 17.5 mg/knee (BID),1.7%
same,"Physician's Global Assessment of Disease Status: Improved (percentage of patients who improved by 2 grades or more from baseline, or from 1 to 0)",[5]; 35 mg/knee (BID),30.9%
same,"Physician's Global Assessment of Disease Status: Worsened (percentage of patients who worsened by 2 grades or more from baseline, or from 3 to 4)",[5]; 35 mg/knee (BID),0%
same,safety and tolerability,"[6]; all three doses (8.75, 17.5, 35 mg/knee BID)",appeared to be safe and were generally well tolerated
same,gastrointestinal disorder incidences (very mild),[6]; whole study,12 incidences
same,skin irritation incidences,"[6]; whole study, total",8 incidences
same,half-life,[7],~1200 min
same,cartilage AUClast,[8],23.91 µg·h/mL
same,muscle AUClast,[8],35.89 µg·h/mL
same,plasma AUClast,[8],1516 ng·h/mL
